Tests used:
[1] = system: HCT116 cells (WT), SMAD4 knockout (null) and R361H isogenic cells; test: Cell viability (CellTiter-Blue) in isogenic colon cancer cells; assay type: cell-based; conditions: Ro-31-8220 1 μM
Procedure: HCT116 cells (WT) and corresponding SMAD4 knockout (null) or R361H, isogenic cells were treated with TGF-β (10 ng/mL), Ro-31-8220 (1 μM), Go-6983 (10 μM), or in combination as indicated. The cell viability after treatment was measured using the CellTiter-Blue™ reagent and normalized to the untreated vehicle or DMSO controls (% C).
(§1) Experiments indicate that Ro-31-8220 is capable of restoring the SMAD4mut/SMAD3 PPI and the tumor-suppressive TGF-β signaling in the SMAD4 mutation cells. Experiments were also performed to determine whether Ro-31-8220 can promote TGF-β-evoked anti-proliferation function in cancer cells with SMAD4 missense mutations. Three functional assays were performed to measure the effect of Ro-31-8220 on cell-cycle progression, cell proliferation, and colony formation with WT and isogenic SMAD4 mutant colon cancer cells.
Thus, the effect of Ro-31-8220 on TGF-β-regulated cell proliferation was examined in the context of the SMAD4 mutation. TGF-β induced a significant decrease of cell viability of SMAD4 WT cells, while the isogenic SMAD4 null or R361H cells were resistant to such TGF-β-induced growth suppression (FIG. 3B).

SMAD4R361H-SMAD3 complex = biological target: T1, SMAD4R361H-SMAD3 complex (Homo sapiens, UniProt Q13485, R361H); test: GST beads pull-down assay of SMAD4R361H-SMAD3 complex formation; assay type: binding; conditions: cell lysate treated with compound, read-out: EC50, amount of SMAD3 in the SMAD4R361H complex
T1 construct: expressed in transfected cells
T1 sequence (P84022 whole entry partner, one chain of several): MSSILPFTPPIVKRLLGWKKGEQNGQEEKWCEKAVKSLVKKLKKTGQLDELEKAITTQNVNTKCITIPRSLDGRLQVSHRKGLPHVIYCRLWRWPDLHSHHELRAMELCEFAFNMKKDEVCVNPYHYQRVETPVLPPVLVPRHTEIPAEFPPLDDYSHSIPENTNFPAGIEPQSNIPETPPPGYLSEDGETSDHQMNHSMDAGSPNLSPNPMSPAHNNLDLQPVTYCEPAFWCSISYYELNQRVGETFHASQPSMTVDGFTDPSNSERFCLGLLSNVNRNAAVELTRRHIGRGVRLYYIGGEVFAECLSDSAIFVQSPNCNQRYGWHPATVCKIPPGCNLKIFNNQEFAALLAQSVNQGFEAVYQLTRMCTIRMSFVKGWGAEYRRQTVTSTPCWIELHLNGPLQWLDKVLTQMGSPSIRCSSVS

R361H cells = test: Transcriptional response to TGF-β (pro-apoptotic and pro-autophagy genes); assay type: cell-based
[2] = system: HCT116 isogenic SMAD4 R361H cells; test: Colony formation assay; assay type: cell-based; conditions: TGF-β 10 ng/mL; Ro-31-8220 1 μM, Go-6983 10 μM
Procedure: Parental HCT116 (WT) and isogenic R361H cells were treated with TGF-β (10 ng/mL), Ro-31-8220 (1 μM), Go-6983 (10 μM), or in combination as indicated.
as §1
The lost tumor suppressor function of mutated SMAD4, R361H, can be recapitulated in an in vitro tumorigenic assay. Colon cancer HCT116 cells with WT and their isogenic mutant SMAD4 cells can grow into large colonies.

[3] = system: HCT116 isogenic SMAD4 R361H cells; test: Flow cytometry-based cell-cycle analysis (G1/S phase); conditions: TGF-β 10 ng/mL; Ro-31-8220 1 μM, Go-6983 10 μM
Procedure: Parental HCT116 (WT) and isogenic R361H cells were treated with TGF-β (10 ng/mL), Ro-31-8220 (1 μM), Go-6983 (10 μM), or in combination as indicated. The percentage of cells staying in G1/S phase was determined by flow cytometry.
as §1

SMAD4D351H-SMAD3 PPI = biological target: T2, SMAD4D351H-SMAD3 PPI (Homo sapiens, UniProt Q13485, D351H); test: GST pull-down assay of SMAD4D351H-SMAD3 complex formation; assay type: binding; conditions: DMSO as control
T2 construct: expressed in transfected cells
T2 sequence (Q13485 whole entry D351H): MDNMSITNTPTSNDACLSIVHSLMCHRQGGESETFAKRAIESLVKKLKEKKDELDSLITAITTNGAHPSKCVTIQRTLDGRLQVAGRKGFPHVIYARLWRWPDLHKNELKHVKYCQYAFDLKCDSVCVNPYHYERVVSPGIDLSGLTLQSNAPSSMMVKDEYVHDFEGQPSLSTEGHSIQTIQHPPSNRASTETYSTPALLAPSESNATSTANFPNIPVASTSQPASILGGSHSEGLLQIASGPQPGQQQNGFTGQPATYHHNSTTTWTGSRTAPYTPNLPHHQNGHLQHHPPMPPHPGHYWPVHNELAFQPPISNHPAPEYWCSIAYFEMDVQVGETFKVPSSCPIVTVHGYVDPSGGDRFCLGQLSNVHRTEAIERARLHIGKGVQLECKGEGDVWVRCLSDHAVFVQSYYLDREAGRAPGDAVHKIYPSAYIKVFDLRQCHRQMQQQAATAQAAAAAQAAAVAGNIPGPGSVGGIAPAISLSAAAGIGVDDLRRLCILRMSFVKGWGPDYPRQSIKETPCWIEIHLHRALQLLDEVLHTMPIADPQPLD
T2 sequence (P84022 whole entry partner): as the sequence (P84022 whole entry partner, one chain of several) above
Description: To evaluate the mutation selectivity of Ro-31-8220 and Go-6983, their potentiation effect on other SMAD4 loss-of-function mutations, such as D351H, was examined. The PPI between SMAD3 and SMAD4D351H was studied in the presence of these compounds with DMSO as a control.

[4] = biological target: T3, His-SMAD4R361H/Flag-SMAD3 PPI (Homo sapiens, UniProt Q13485, R361H); test: TR-FRET assay of the SMAD4R361H/SMAD3 protein-protein interaction in cell lysate; assay type: binding; conditions: dose-response, read-out: EC50, increase of the TR-FRET signal of SMAD4R361H-SMAD3 PPI
T3 construct: expressed in transfected cells; host or cells: HEK293T
T3 sequence (P84022 whole entry partner, one chain of several): as above

[5] = system: SMAD4R361H with R-SMADs (SMAD3, SMAD2, SMAD1, SMAD5, SMAD8); test: TR-FRET assay of SMAD4R361H with different R-SMAD isoforms; assay type: binding, Homo sapiens; conditions: for R-SMAD selectivity in inducing the interaction of SMAD4R361H with SMAD3 and SMAD2: among all the tested R-SMADs; for compound-induced TR-FRET signal for SMAD4R361H interaction with SMAD3 versus other R-SMADs: compound titration
Procedure: To determine the R-SMADs selectivity of Ro-31-8220 and Go-6983, experiments were performed to determine their effects on inducing PPI between SMAD4R361H and different isoforms of R-SMADs using the TR-FRET assay.

Flag-SMAD3, P84022 = test: TR-FRET, HEK293T cell lysate, anti-Flag-Tb / anti-His-D2; conditions: remark: other sources report otherwise
Sequence of Flag-SMAD3, P84022 (P84022 whole entry): as the sequence (P84022 whole entry partner, one chain of several) above

Molecule | sensitivity of SMAD4 R361H cells to TGF-β-induced growth suppression ([1]; R361H cells, TGF-β 10 ng/mL, Go-6983 10 μM) | growth inhibition by compound treatment alone ([1]; SMAD4 WT, null and R361H cells) | combination with TGF-β in inhibiting cell viability ([1]; TGF-β 10 ng/mL, Go-6983 10 μM) | EC50 (SMAD4R361H-SMAD3 complex) | transcriptional response of R361H cells to TGF-β (R361H cells) | colony area of R361H cells, sensitivity to TGF-β-induced inhibition of colony formation [2] | combination with TGF-β in inhibiting colon cancer cell colony formation [2] | sensitivity of R361H cells to TGF-β-induced G1/S cell-cycle arrest [3] | SMAD3 level in the D351H GST pull-down complex (SMAD4D351H-SMAD3 PPI) | EC50 [4] | R-SMAD selectivity in inducing the interaction of SMAD4R361H with SMAD3 and SMAD2 [5] | compound-induced TR-FRET signal for SMAD4R361H interaction with SMAD3 versus other R-SMADs [5] | signal-to-background ratio (Flag-SMAD3, P84022)
Cn1cc(C2=C(c3cn(CCCSC(=N)N)c4ccccc34)C(=O)NC2=O)c2ccccc21 [Ro-31-8220, 3-(3-(4-(1-methyl-1H-indol-3-yl)-2,5-dioxo-2,5-dihydro-1H-pyrrol-3-yl)-1H-indol-1-yl)propyl carbamimidothioate] | restored the sensitivity | did not result in any significant growth inhibition | synergistic effect | 2.1 ± 0.7 µM | restored the transcriptional response | significantly decreased colony area | synergistic effect | regained sensitivity | significantly restored | 3.9 ± 1 µM | selective | significantly higher | –
COc1ccc2c(c1)c(C1=C(c3c[nH]c4ccccc34)C(=O)NC1=O)cn2CCCN(C)C [Go-6983, 3-(1-(3-(dimethylamino)propyl)-5-methoxy-1H-indol-3-yl)-4-(1H-indol-3-yl)-1H-pyrrole-2,5-dione] | – | – | synergistic effect | 8.9 ± 0.7 µM | – | – | synergistic effect | – | significantly restored | 15.2 ± 2.9 µM | selective | significantly higher | –
His-SMAD4WT, Q13485 1-552 (protein, not shown: small tags and cut ends) MDNMSITNTPTSNDACLSIVHSLMCHRQGGESETFAKRAIESLVKKLKEKKDELDSLITAITTNGAHPSKCVTIQRTLDGRLQVAGRKGFPHVIYARLWRWPDLHKNELKHVKYCQYAFDLKCDSVCVNPYHYERVVSPGIDLSGLTLQSNAPSSMMVKDEYVHDFEGQPSLSTEGHSIQTIQHPPSNRASTETYSTPALLAPSESNATSTANFPNIPVASTSQPASILGGSHSEGLLQIASGPQPGQQQNGFTGQPATYHHNSTTTWTGSRTAPYTPNLPHHQNGHLQHHPPMPPHPGHYWPVHNELAFQPPISNHPAPEYWCSIAYFEMDVQVGETFKVPSSCPIVTVDGYVDPSGGDRFCLGQLSNVHRTEAIERARLHIGKGVQLECKGEGDVWVRCLSDHAVFVQSYYLDREAGRAPGDAVHKIYPSAYIKVFDLRQCHRQMQQQAATAQAAAAAQAAAVAGNIPGPGSVGGIAPAISLSAAAGIGVDDLRRLCILRMSFVKGWGPDYPRQSIKETPCWIEIHLHRALQLLDEVLHTMPIADPQPLD | – | – | – | – | – | – | – | – | – | – | – | – | 30 fold
His-SMAD4R361H, Q13485 1-552 (protein, not shown: small tags and cut ends) MDNMSITNTPTSNDACLSIVHSLMCHRQGGESETFAKRAIESLVKKLKEKKDELDSLITAITTNGAHPSKCVTIQRTLDGRLQVAGRKGFPHVIYARLWRWPDLHKNELKHVKYCQYAFDLKCDSVCVNPYHYERVVSPGIDLSGLTLQSNAPSSMMVKDEYVHDFEGQPSLSTEGHSIQTIQHPPSNRASTETYSTPALLAPSESNATSTANFPNIPVASTSQPASILGGSHSEGLLQIASGPQPGQQQNGFTGQPATYHHNSTTTWTGSRTAPYTPNLPHHQNGHLQHHPPMPPHPGHYWPVHNELAFQPPISNHPAPEYWCSIAYFEMDVQVGETFKVPSSCPIVTVDGYVDPSGGDHFCLGQLSNVHRTEAIERARLHIGKGVQLECKGEGDVWVRCLSDHAVFVQSYYLDREAGRAPGDAVHKIYPSAYIKVFDLRQCHRQMQQQAATAQAAAAAQAAAVAGNIPGPGSVGGIAPAISLSAAAGIGVDDLRRLCILRMSFVKGWGPDYPRQSIKETPCWIEIHLHRALQLLDEVLHTMPIADPQPLD | – | – | – | – | – | – | – | – | – | – | – | – | 10 fold
